Measurements published in ChEMBL document CHEMBL3233012, “Synthesis, antimicrobial and cytotoxic activities of pyrimidinyl benzoxazole, benzothiazole and benzimidazole” (Eur J Med Chem, 2014).
Values after ≈ are worked out from the molar mass of the structure shown. Active and inactive are the calls of the source. No cut-off for these calls is given here.

Tests used:
Pseudomonas aeruginosa [1] = assay: Antimicrobial activity against Pseudomonas aeruginosa at 100 ug/well after 24 hrs by agar well diffusion method; assay type: functional; settings: read-out: DIZ
Staphylococcus aureus [2] = assay: Antimicrobial activity against Staphylococcus aureus ATCC 25923 after 24 hrs; assay type: functional; settings: ATCC 25923, 24 h
Aspergillus niger [3] = assay: Antimicrobial activity against Aspergillus niger at 100 ug/well after 48 hrs by agar well diffusion method; assay type: functional; settings: read-out: DIZ
Penicillium chrysogenum [4] = assay: Antimicrobial activity against Penicillium chrysogenum at 50 ug/well after 48 hrs by agar well diffusion method; assay type: functional; settings: read-out: DIZ
Staphylococcus aureus [5] = assay: Antimicrobial activity against Staphylococcus aureus ATCC 25923 after 24 hrs by broth dilution method; assay type: functional; settings: ATCC 25923, 24 h
Escherichia coli [6] = assay: Antimicrobial activity against Escherichia coli at 100 ug/well after 24 hrs by agar well diffusion method; assay type: functional; settings: read-out: DIZ
Escherichia coli [7] = assay: Antimicrobial activity against Escherichia coli at 25 ug/well after 24 hrs by agar well diffusion method; assay type: functional; settings: read-out: DIZ
Pseudomonas aeruginosa [8] = assay: Antimicrobial activity against Pseudomonas aeruginosa ATCC 27853 after 24 hrs; assay type: functional; settings: ATCC 27853, 24 h
Pseudomonas aeruginosa [9] = assay: Antimicrobial activity against Pseudomonas aeruginosa at 25 ug/well after 24 hrs by agar well diffusion method; assay type: functional; settings: read-out: DIZ
Aspergillus niger [10] = assay: Antimicrobial activity against Aspergillus niger at 25 ug/well after 48 hrs by agar well diffusion method; assay type: functional; settings: read-out: DIZ
Aspergillus niger [11] = assay: Antimicrobial activity against Aspergillus niger at 50 ug/well after 48 hrs by agar well diffusion method; assay type: functional; settings: read-out: DIZ
Pseudomonas aeruginosa [12] = assay: Antimicrobial activity against Pseudomonas aeruginosa ATCC 27853 after 24 hrs by broth dilution method; assay type: functional; settings: ATCC 27853, 24 h
Staphylococcus aureus [13] = assay: Antimicrobial activity against Staphylococcus aureus at 50 ug/well after 24 hrs by agar well diffusion method; assay type: functional; settings: read-out: DIZ
Escherichia coli [14] = assay: Antimicrobial activity against Escherichia coli ATCC 25922 after 24 hrs by broth dilution method; assay type: functional; settings: ATCC 25922, 24 h
Pseudomonas aeruginosa [15] = assay: Antimicrobial activity against Pseudomonas aeruginosa at 50 ug/well after 24 hrs by agar well diffusion method; assay type: functional; settings: read-out: DIZ
Penicillium chrysogenum [16] = assay: Antimicrobial activity against Penicillium chrysogenum after 24 hrs; assay type: functional
Penicillium chrysogenum [17] = assay: Antimicrobial activity against Penicillium chrysogenum at 25 ug/well after 48 hrs by agar well diffusion method; assay type: functional; settings: read-out: DIZ
Escherichia coli [18] = assay: Antimicrobial activity against Escherichia coli at 50 ug/well after 24 hrs by agar well diffusion method; assay type: functional; settings: read-out: DIZ
A549 = assay: Cytotoxicity against human A549 cells assessed as reduction in cell viability up to 200 uM after 20 hrs by MTT assay; assay type: functional, cell-based
Penicillium chrysogenum [19] = assay: Antimicrobial activity against Penicillium chrysogenum at 100 ug/well after 48 hrs by agar well diffusion method; assay type: functional; settings: read-out: DIZ
Staphylococcus aureus [20] = assay: Antimicrobial activity against Staphylococcus aureus at 25 ug/well after 24 hrs by agar well diffusion method; assay type: functional; settings: read-out: DIZ
Staphylococcus aureus [21] = assay: Ratio of MBC to MIC for Staphylococcus aureus ATCC 25923; assay type: functional
Penicillium chrysogenum [22] = assay: Ratio of MBC to MIC for Penicillium chrysogenum; assay type: functional
Aspergillus niger [23] = assay: Antimicrobial activity against Aspergillus niger after 24 hrs; assay type: functional
Aspergillus niger [24] = assay: Antimicrobial activity against Aspergillus niger after 24 hrs by broth dilution method; assay type: functional
Staphylococcus aureus [25] = assay: Antimicrobial activity against Staphylococcus aureus at 100 ug/well after 24 hrs by agar well diffusion method; assay type: functional; settings: read-out: DIZ
Escherichia coli [26] = assay: Antimicrobial activity against Escherichia coli ATCC 25922 after 24 hrs; assay type: functional; settings: ATCC 25922, 24 h
Penicillium chrysogenum [27] = assay: Antimicrobial activity against Penicillium chrysogenum after 24 hrs by broth dilution method; assay type: functional
Pseudomonas aeruginosa [28] = assay: Ratio of MBC to MIC for Pseudomonas aeruginosa ATCC 27853; assay type: functional
Aspergillus niger [29] = assay: Ratio of MBC to MIC for Aspergillus niger; assay type: functional
Escherichia coli [30] = assay: Ratio of MBC to MIC for Escherichia coli ATCC 25922; assay type: functional

| MIC (Staphylococcus aureus [5]) | MIC (Pseudomonas aeruginosa [12]) | MIC (Escherichia coli [14]) | Structure (SMILES) | zone of inhibition at 100 µg/disc (Pseudomonas aeruginosa [1]) | MBC (Staphylococcus aureus [2]) | zone of inhibition at 100 µg/disc (Aspergillus niger [3]) | zone of inhibition at 50 µg/disc (Penicillium chrysogenum [4]) | zone of inhibition at 100 µg/disc (Escherichia coli [6]) | zone of inhibition at 25 µg/disc (Escherichia coli [7]) | MBC (Pseudomonas aeruginosa [8]) | zone of inhibition at 25 µg/disc (Pseudomonas aeruginosa [9]) | zone of inhibition at 25 µg/disc (Aspergillus niger [10]) | zone of inhibition at 50 µg/disc (Aspergillus niger [11]) | zone of inhibition at 50 µg/disc (Staphylococcus aureus [13]) | zone of inhibition at 50 µg/disc (Pseudomonas aeruginosa [15]) | MFC (Penicillium chrysogenum [16]) | zone of inhibition at 25 µg/disc (Penicillium chrysogenum [17]) | zone of inhibition at 50 µg/disc (Escherichia coli [18]) | Activity (A549) | zone of inhibition at 100 µg/disc (Penicillium chrysogenum [19]) | also measured |
| --- | --- | --- | --- | --- | --- | --- | --- | --- | --- | --- | --- | --- | --- | --- | --- | --- | --- | --- | --- | --- | --- |
| 12.5 µg/mL (≈ 29.9 µM) | 12.5 µg/mL (≈ 29.9 µM) | 50 µg/mL (≈ 119 µM) | Cc1cc(SCc2nc3ccccc3[nH]2)nc(SCc2nc3ccccc3[nH]2)n1 | 27 mm | 25 µg/mL (≈ 59.7 µM) | 32 mm | 35 mm | 35 mm | 28 mm | 100 µg/mL (≈ 239 µM) | 22 mm | 27 mm | 30 mm | 26 mm | 25 mm | 25 µg/mL (≈ 59.7 µM) | 33 mm | 32 mm | inactive | 38 mm | zone of inhibition at 25 µg/disc (Staphylococcus aureus [20]): 23 mm; Ratio (Staphylococcus aureus [21]): 2; Ratio (Penicillium chrysogenum [22]): 2; MFC (Aspergillus niger [23]): 100 µg/mL (≈ 239 µM); MIC (Aspergillus niger [24]): 12.5 µg/mL (≈ 29.9 µM); zone of inhibition at 100 µg/disc (Staphylococcus aureus [25]): 29 mm; MBC (Escherichia coli [26]): 200 µg/mL (≈ 478 µM); MIC (Penicillium chrysogenum [27]): 12.5 µg/mL (≈ 29.9 µM) |
| 50 µg/mL (≈ 119 µM) | 100 µg/mL (≈ 238 µM) | 100 µg/mL (≈ 238 µM) | Cc1cc(SCc2nc3ccccc3o2)nc(SCc2nc3ccccc3o2)n1 | 22 mm | > 200 µg/mL | 24 mm | 30 mm | 29 mm | 21 mm | > 200 µg/mL | 17 mm | 20 mm | 22 mm | 22 mm | 20 mm | > 200 µg/mL | 28 mm | 24 mm | inactive | 33 mm | Ratio (Pseudomonas aeruginosa [28]): >2; Ratio (Aspergillus niger [29]): >2; Ratio (Escherichia coli [30]): >2; zone of inhibition at 25 µg/disc (Staphylococcus aureus [20]): 20 mm; Ratio (Staphylococcus aureus [21]): >2; Ratio (Penicillium chrysogenum [22]): >2; MFC (Aspergillus niger [23]): > 200 µg/mL; MIC (Aspergillus niger [24]): 100 µg/mL (≈ 238 µM); zone of inhibition at 100 µg/disc (Staphylococcus aureus [25]): 23 mm; MBC (Escherichia coli [26]): > 200 µg/mL; MIC (Penicillium chrysogenum [27]): 100 µg/mL (≈ 238 µM) |
| 50 µg/mL (≈ 110 µM) | 50 µg/mL (≈ 110 µM) | 100 µg/mL (≈ 221 µM) | Cc1cc(SCc2nc3ccccc3s2)nc(SCc2nc3ccccc3s2)n1 | 24 mm | 200 µg/mL (≈ 442 µM) | 28 mm | 32 mm | 30 mm | 24 mm | 200 µg/mL (≈ 442 µM) | 19 mm | 24 mm | 25 mm | 23 mm | 21 mm | 200 µg/mL (≈ 442 µM) | 30 mm | 28 mm | inactive | 35 mm | Ratio (Pseudomonas aeruginosa [28]): >2; Ratio (Aspergillus niger [29]): >2; Ratio (Escherichia coli [30]): >2; zone of inhibition at 25 µg/disc (Staphylococcus aureus [20]): 21 mm; Ratio (Staphylococcus aureus [21]): >2; Ratio (Penicillium chrysogenum [22]): >2; MFC (Aspergillus niger [23]): > 200 µg/mL; MIC (Aspergillus niger [24]): 50 µg/mL (≈ 110 µM); zone of inhibition at 100 µg/disc (Staphylococcus aureus [25]): 25 mm; MBC (Escherichia coli [26]): > 200 µg/mL; MIC (Penicillium chrysogenum [27]): 50 µg/mL (≈ 110 µM) |
